Measurements from patent publication US11932606B2, “Anti-cancer/anti-fibrosis compounds” (THE REGENTS OF THE UNIVERSITY OF CALIFORNIA, priority 2017, dated 2024).
Read-outs that look alike come from different tables or passages of the source.

How the values were obtained:
CSNK2A1 (CK2 alpha 1) = CSNK2A1 (CK2 alpha 1) (Homo sapiens (Human), UniProt P68400); assay: CK2 alpha 1 enzymatic activity inhibition (Z'-LYTE); type: biochemical; details: read-out: CK2a IC50
Method: CK2 Alpha 1 Enzymatic Activity Inhibition: Determination of IC50 Values for Selected Compounds
The half maximal inhibitory concentration (IC50) with respect to CK2 alpha 1 inhibition was determined for the compounds of the invention by using Z′-LYTE™ from ThermoFisher Scientific's SelectScreen™ Biochemical Kinase Profiling Service (Waltham, MA). Compounds were screened in 1% DMSO (final) in the well. For 10 point titrations, 3-fold serial dilutions were conducted from the starting concentration. The 2×CSNK2A1 (CK2 alpha 1)/Ser/Thr 11 mixture is prepared in 50 mM HEPES pH 7.5, 0.01% BRIJ-35, 10 mM MgCl2, 1 mM EGTA. The black 384-well plate (Corning Cat. #4514) were used for the assay. 100 nL of 100× test compound in 100% DMSO, 2.4 uL of kinase buffer (50 mM HEPES pH 7.5, 0.01% BRIJ-35, 10 mM MgCl2, 1 mM EGTA), 5 uL of 2×CSNK2A1 (CK2 alpha 1)/Ser/Thr 11 mixture, and 2.5 uL of 4×ATP solution were mixed and agitated for 30 seconds. Then the Kinase Reaction was incubated at room temperature for 60 minutes. The final 10 uL Kinase Reaction consisted of 0.68-25.7 ng CSNK2A1 (CK2 alpha 1) and 2 μM Ser/Thr 11 in 50 mM HEPES pH 7.5, 0.01% BRIJ-35, 10 mM MgCl2, 1 mM EGTA. After the 1 hour Kinase Reaction incubation, 5 uL of a 1:16 dilution of Development Reagent B is added. After 30 second of plate shake, the reaction plate was incubated for another 60 min at room temperature. Then the plate was read on a fluorescence plate reader (CLARIOstar, BMG Labtech, Germany) and data was analyzed using XLfit from IDBS. The dose response curve was curve fit to model number 205 (sigmoidal dose-response model).

HIPK2 = HIPK2 (Homo sapiens (Human), UniProt Q9H2X6); assay: HIPK2 enzymatic activity inhibition (Z'-LYTE); type: biochemical
Method: HIPK2 Enzymatic Activity Inhibition: Determination of IC50 Values for Selected Compounds
The half maximal inhibitory concentration (IC50) with respect to HIPK2 inhibition was determined for the compounds of the invention by using Z′-LYTE™ from ThermoFisher Scientific's SelectScreen™ Biochemical Kinase Profiling Service (Waltham, MA). Compounds were screened in 1% DMSO (final) in the well. For 10 point titrations, 3-fold serial dilutions were conducted from the starting concentration. The 2×HIPK2/Ser/Thr 09 mixture was prepared in 50 mM HEPES pH 7.5, 0.01% BRIJ-35, 10 mM MgCl2, 1 mM EGTA.
100 nL of 100× test compound in 100% DMSO, 2.4 uL of kinase buffer (50 mM HEPES pH 7.5, 0.01% BRIJ-35, 10 mM MgCl2, 1 mM EGTA), 5 uL of 2×HIPK2/Ser/Thr 09 mixture, and 2.5 uL of 4×ATP solution were mixed and agitated for 30 seconds. Then the Kinase Reaction was incubated at room temperature for 60 minutes. […] After 30 second of plate shake, the reaction plate was incubated for another 60 min at room temperature. Then the plate was read on a fluorescence plate reader (CLARIOstar, BMG Labtech, Germany) as plate reader and data was analyzed using XLfit from IDBS.

Chain of CSNK2A1 (CK2 alpha 1) (P68400 whole entry): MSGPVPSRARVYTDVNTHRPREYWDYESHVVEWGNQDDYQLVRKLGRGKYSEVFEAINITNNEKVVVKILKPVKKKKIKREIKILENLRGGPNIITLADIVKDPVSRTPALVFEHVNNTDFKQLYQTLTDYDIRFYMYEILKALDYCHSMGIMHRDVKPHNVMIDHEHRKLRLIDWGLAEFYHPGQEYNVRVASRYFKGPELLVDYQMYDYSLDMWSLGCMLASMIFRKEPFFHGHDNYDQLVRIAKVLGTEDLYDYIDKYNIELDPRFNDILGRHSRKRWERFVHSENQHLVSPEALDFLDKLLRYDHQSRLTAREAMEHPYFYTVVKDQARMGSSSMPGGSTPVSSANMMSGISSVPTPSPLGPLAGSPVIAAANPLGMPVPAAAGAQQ
Chain of HIPK2 (Q9H2X6 whole entry): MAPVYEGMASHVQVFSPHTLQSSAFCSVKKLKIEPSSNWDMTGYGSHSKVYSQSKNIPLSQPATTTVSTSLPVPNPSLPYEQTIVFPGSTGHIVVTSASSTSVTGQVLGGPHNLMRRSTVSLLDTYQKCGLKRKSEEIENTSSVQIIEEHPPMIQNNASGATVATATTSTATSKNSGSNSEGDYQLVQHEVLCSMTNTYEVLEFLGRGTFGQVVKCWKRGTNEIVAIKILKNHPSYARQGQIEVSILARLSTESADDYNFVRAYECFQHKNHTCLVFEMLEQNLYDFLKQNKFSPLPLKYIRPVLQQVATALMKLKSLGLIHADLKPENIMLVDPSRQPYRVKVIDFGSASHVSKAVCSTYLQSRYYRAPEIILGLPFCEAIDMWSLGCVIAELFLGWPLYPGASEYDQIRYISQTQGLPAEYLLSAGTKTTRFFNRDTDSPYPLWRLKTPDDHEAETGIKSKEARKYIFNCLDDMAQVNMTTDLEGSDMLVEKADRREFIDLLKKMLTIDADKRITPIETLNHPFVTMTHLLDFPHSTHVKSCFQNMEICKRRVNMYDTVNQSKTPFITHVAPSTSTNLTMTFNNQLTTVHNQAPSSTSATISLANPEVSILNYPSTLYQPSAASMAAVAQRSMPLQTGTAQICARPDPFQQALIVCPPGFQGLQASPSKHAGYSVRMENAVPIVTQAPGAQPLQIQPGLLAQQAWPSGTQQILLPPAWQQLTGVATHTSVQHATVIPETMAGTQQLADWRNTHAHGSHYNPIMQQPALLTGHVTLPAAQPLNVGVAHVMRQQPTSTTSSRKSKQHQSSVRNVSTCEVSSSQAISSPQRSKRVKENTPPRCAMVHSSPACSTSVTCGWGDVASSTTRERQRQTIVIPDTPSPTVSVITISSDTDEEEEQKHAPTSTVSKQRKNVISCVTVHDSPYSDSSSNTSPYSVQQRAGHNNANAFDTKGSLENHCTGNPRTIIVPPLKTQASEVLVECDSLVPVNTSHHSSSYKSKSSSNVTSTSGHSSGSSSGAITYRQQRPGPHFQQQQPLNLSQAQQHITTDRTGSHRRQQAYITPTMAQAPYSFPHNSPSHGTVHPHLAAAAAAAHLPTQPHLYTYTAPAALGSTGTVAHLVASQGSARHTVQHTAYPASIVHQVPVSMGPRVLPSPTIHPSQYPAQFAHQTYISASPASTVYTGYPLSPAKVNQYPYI

Structure (SMILES): O=C(O)c1ccc2c(c1)cc(Br)c1ccncc12 [Compound 1, Sodium 5-bromobenzo[h]isoquinoline-8-carboxylate]
- IC50 (CSNK2A1 (CK2 alpha 1)): < 0.3 µM
- IC50 (HIPK2; read-out: HIPK2 IC50): < 0.3 µM

Structure (SMILES): O=C(O)c1ccc2c(ccc3ccncc32)c1 [Compound 2, Sodium benzo[h]isoquinoline-8-carboxylate]
- IC50 (CSNK2A1 (CK2 alpha 1)): < 0.3 µM
- IC50 (HIPK2): 1 to 5 µM

Structure (SMILES): O=C(O)c1ccc2c(c1)cc(Cl)c1ccncc12 [Compound 3, Sodium 5-chlorobenzo[h]isoquinoline-8-carboxylate]
- IC50 (CSNK2A1 (CK2 alpha 1)): < 0.3 µM
- IC50 (HIPK2): 0.3 to 1 µM

Structure (SMILES): O=C(O)c1ccc2c(c1)cc(Nc1cccc(Cl)c1)c1ccncc12 [Compound 4, Sodium 5-((3-chlorophenyl)amino)benzo[h]isoquinoline-8-carboxylate]
- IC50 (CSNK2A1 (CK2 alpha 1)): < 0.3 µM
- IC50 (HIPK2): 0.3 to 1 µM

Structure (SMILES): O=C(O)c1ccc2c(c1)cc(Nc1ccc(Cl)cc1)c1ccncc12 [Compound 5, Sodium 5-((4-chlorophenyl)amino)benzo[h]isoquinoline-8-carboxylate]
- IC50 (CSNK2A1 (CK2 alpha 1)): < 0.3 µM
- IC50 (HIPK2): 0.3 to 1 µM

Structure (SMILES): O=C(O)c1ccc2c(c1)cc(-c1ccc(Cl)cc1)c1ccncc12 [Compound 6, Sodium 5-(4-chlorophenyl)benzo[h]isoquinoline-8-carboxylate]
- IC50 (CSNK2A1 (CK2 alpha 1)): 0.3 to 1 µM
- IC50 (HIPK2): 1 to 5 µM

Structure (SMILES): O=C(O)c1ccc2c(c1)cc(-c1cccnc1)c1ccncc12 [Compound 7, Sodium 5-(pyridin-3-yl)benzo[h]isoquinoline-8-carboxylate]
- IC50 (CSNK2A1 (CK2 alpha 1)): < 0.3 µM
- IC50 (HIPK2): 1 to 5 µM

Structure (SMILES): O=C(O)c1ccc2c(c1)cc(-c1ccncc1)c1ccncc12 [Compound 8, Sodium 5-(pyridin-4-yl)benzo[h]isoquinoline-8-carboxylate]
- IC50 (CSNK2A1 (CK2 alpha 1)): < 0.3 µM
- IC50 (HIPK2): 1 to 5 µM

Structure (SMILES): Cc1cc2cc(C(=O)O)ccc2c2cnccc12 [Compound 9, Sodium 5-methylbenzo[h]isoquinoline-8-carboxylate]
- IC50 (CSNK2A1 (CK2 alpha 1)): < 0.3 µM
- IC50 (HIPK2): 0.3 to 1 µM

Structure (SMILES): Nc1ccc(-c2cc3cc(C(=O)O)ccc3c3cnccc23)cn1 [Compound 10, Sodium 5-(6-aminopyridin-3-yl)benzo[h]isoquinoline-8-carboxylate]
- IC50 (CSNK2A1 (CK2 alpha 1)): < 0.3 µM
- IC50 (HIPK2): 0.3 to 1 µM

Structure (SMILES): O=C(O)c1ccc2c(c1)cc(-c1cc[nH]n1)c1ccncc12 [Compound 11, Sodium 5-(1H-pyrazol-3-yl)benzo[h]isoquinoline-8-carboxylate]
- IC50 (CSNK2A1 (CK2 alpha 1)): < 0.3 µM
- IC50 (HIPK2): 1 to 5 µM

Structure (SMILES): O=C(O)c1ccc2c(c1)cc(NC1CCCCC1)c1ccncc12 [Compound 12, Sodium 5-(cyclohexylamino)benzo[h]isoquinoline-8-carboxylate]
- IC50 (CSNK2A1 (CK2 alpha 1)): < 0.3 µM
- IC50 (HIPK2): 0.3 to 1 µM

Structure (SMILES): O=C(O)c1ccc2c(c1)cc(N[C@@H]1CCCNC1)c1ccncc12 [Compound 13, (R)-5-(Piperidin-3-ylamino)benzo[h]isoquinoline-8-carboxylic acid]
- IC50 (CSNK2A1 (CK2 alpha 1)): 1 to 5 µM
- IC50 (HIPK2): 1 to 5 µM

Structure (SMILES): N[C@@H]1CCCN(c2cc3cc(C(=O)O)ccc3c3cnccc23)C1 [Compound 14, (R)-5-(3-Aminopiperidin-1-yl)benzo[h]isoquinoline-8-carboxylic acid]
- IC50 (CSNK2A1 (CK2 alpha 1)): < 0.3 µM
- IC50 (HIPK2; read-out: HIPK2 IC50): > 5 µM

Structure (SMILES): O=C(O)c1ccc2c(c1)cc(NC1CCCC1)c1ccncc12 [Compound 15, Sodium 5-(cyclopentylamino)benzo[h]isoquinoline-8-carboxylate]
- IC50 (CSNK2A1 (CK2 alpha 1)): < 0.3 µM
- IC50 (HIPK2): 0.3 to 1 µM

Structure (SMILES): CC(C)CNc1cc2cc(C(=O)O)ccc2c2cnccc12 [Compound 16]
- IC50 (CSNK2A1 (CK2 alpha 1)): < 0.3 µM

Structure (SMILES): O=C(O)c1ccc2c(c1)cc(NC1CC1)c1ccncc12 [Compound 17, Sodium 5-(cyclopropylamino)benzo[h]isoquinoline-8-carboxylate]
- IC50 (CSNK2A1 (CK2 alpha 1)): < 0.3 µM
- IC50 (HIPK2; read-out: HIPK2 IC50): < 0.3 µM

Structure (SMILES): O=C(O)c1ccc2c(c1)cc(NC1CCC1)c1ccncc12 [Compound 18, Sodium 5-(cyclobutylamino)benzo[h]isoquinoline-8-carboxylate]
- IC50 (CSNK2A1 (CK2 alpha 1)): < 0.3 µM
- IC50 (HIPK2): 0.3 to 1 µM

Structure (SMILES): CC[C@H](C)Nc1cc2cc(C(=O)O)ccc2c2cnccc12 [Compound 19, (S)-5-(sec-Butylamino)benzo[h]isoquinoline-8-carboxylic acid]
- IC50 (CSNK2A1 (CK2 alpha 1)): < 0.3 µM
- IC50 (HIPK2): 1 to 5 µM

Structure (SMILES): O=C(O)c1ccc2c(c1)cc(N1CCCCC1)c1ccncc12 [Compound 20, Sodium 5-(piperidin-1-yl)benzo[h]isoquinoline-8-carboxylate]
- IC50 (CSNK2A1 (CK2 alpha 1)): < 0.3 µM
- IC50 (HIPK2): 0.3 to 1 µM

Structure (SMILES): CC(C)Nc1cc2cc(C(=O)O)ccc2c2cnccc12 [Compound 21, Sodium 5-(isopropylamino)benzo[h]isoquinoline-8-carboxylate]
- IC50 (CSNK2A1 (CK2 alpha 1)): < 0.3 µM
- IC50 (HIPK2): 0.3 to 1 µM

Structure (SMILES): CC[C@@H](C)Nc1cc2cc(C(=O)O)ccc2c2cnccc12 [Compound 22, Sodium (R)-5-(sec-butylamino)benzo[h]isoquinoline-8-carboxylate]
- IC50 (CSNK2A1 (CK2 alpha 1)): < 0.3 µM
- IC50 (HIPK2; read-out: HIPK2 IC50): < 0.3 µM

Structure (SMILES): O=C(O)c1ccc2c(c1)cc(Br)c1ccnc(Cl)c12 [Compound 23, Sodium 5-bromo-1-chlorobenzo[h]isoquinoline-8-carboxylate]
- IC50 (CSNK2A1 (CK2 alpha 1)): < 0.3 µM
- IC50 (HIPK2): 0.3 to 1 µM

Structure (SMILES): O=C(O)c1ccc2c(c1)cc(Br)c1cc(Cl)ncc12 [Compound 24, Sodium 5-bromo-3-chlorobenzo[h]isoquinoline-8-carboxylate]
- IC50 (CSNK2A1 (CK2 alpha 1)): 1 to 5 µM
- IC50 (HIPK2; read-out: HIPK2 IC50): > 5 µM

Structure (SMILES): O=C(O)c1ccc2c(ccc3ccnc(Cl)c32)c1 [Compound 25, Sodium 1-chlorobenzo[h]isoquinoline-8-carboxylate]
- IC50 (CSNK2A1 (CK2 alpha 1)): < 0.3 µM
- IC50 (HIPK2): 1 to 5 µM

Structure (SMILES): O=C(O)c1ccc2c(c1)cc([N+](=O)[O-])c1ccncc12 [Compound 26, Sodium 5-nitrobenzo[h]isoquinoline-8-carboxylate]
- IC50 (CSNK2A1 (CK2 alpha 1)): < 0.3 µM
- IC50 (HIPK2): 0.3 to 1 µM

Structure (SMILES): N#Cc1cc2cc(C(=O)O)ccc2c2cnccc12 [Compound 27, Sodium 5-cyanobenzo[h]isoquinoline-8-carboxylate]
- IC50 (CSNK2A1 (CK2 alpha 1)): < 0.3 µM
- IC50 (HIPK2): 0.3 to 1 µM

Structure (SMILES): O=C(O)c1ccc2c(c1)cc(C1CC1)c1ccncc12 [Compound 28, Sodium 5-cyclopropylbenzo[h]isoquinoline-8-carboxylate]
- IC50 (CSNK2A1 (CK2 alpha 1)): < 0.3 µM
- IC50 (HIPK2): 0.3 to 1 µM

Structure (SMILES): CN(C)c1nccc2c(Br)cc3cc(C(=O)O)ccc3c12 [Compound 30, Sodium 5-bromo-1-(dimethylamino)benzo[h]isoquinoline-8-carboxylate]
- IC50 (CSNK2A1 (CK2 alpha 1)): 1 to 5 µM
- IC50 (HIPK2): 1 to 5 µM

Structure (SMILES): O=C(O)c1ccc2c(c1)cc(Br)c1ccnc(NC3CC3)c12 [Compound 31, Sodium 5-bromo-1-(cyclopropylamino)benzo[h]isoquinoline-8-carboxylate]
- IC50 (CSNK2A1 (CK2 alpha 1)): 1 to 5 µM
- IC50 (HIPK2): 1 to 5 µM

Structure (SMILES): CNc1nccc2c(Br)cc3cc(C(=O)O)ccc3c12 [Compound 32, Sodium 5-bromo-1-(methylamino)benzo[h]isoquinoline-8-carboxylate]
- IC50 (CSNK2A1 (CK2 alpha 1)): 0.3 to 1 µM
- IC50 (HIPK2): 1 to 5 µM

Structure (SMILES): NC(=O)c1ccc2c(c1)cc(Br)c1ccnc(N)c12 [Compound 33, 1-Amino-5-bromobenzo[h]isoquinoline-8-carboxamide]
- IC50 (CSNK2A1 (CK2 alpha 1)): 1 to 5 µM
- IC50 (HIPK2): 0.3 to 1 µM

Structure (SMILES): COc1nccc2c(Br)cc3cc(C(=O)O)ccc3c12 [Compound 34, Sodium 5-bromo-1-methoxybenzo[h]isoquinoline-8-carboxylate]
- IC50 (CSNK2A1 (CK2 alpha 1)): 0.3 to 1 µM
- IC50 (HIPK2): 1 to 5 µM

Structure (SMILES): Nc1nccc2cc(Br)c3cc(C(=O)O)ccc3c12 [Compound 35, Sodium 1-amino-6-bromobenzo[h]isoquinoline-8-carboxylate]
- IC50 (CSNK2A1 (CK2 alpha 1)): 0.3 to 1 µM
- IC50 (HIPK2; read-out: HIPK2 IC50): < 0.3 µM
